Experiments:
RSK2 = biological target: T1, RSK2 (Homo sapiens, UniProt P51812); experiment: Western blot degradation of RSK2 (hPBMC); assay type: cell-based; conditions: Table D8
T1 construct: evaluate the effects of the compounds of the present disclosure on the expression of target proteins in cells; endogenous in cells; host or cells: hPBMC
Description: (§1) Conventional Western blot assay was performed to evaluate the effects of the compounds of the present disclosure on the expression of target proteins in cells.
(§2) (1) Cell Seeding and Protein Harvesting: The selected cells were processed according to the cell seeding procedure and protein harvesting procedure in Table III-2. Table III-2 Cell Seeding and Protein Harvesting Procedures
(§3) (2) To the collected supernatant, 5X SDS sample loading buffer was added, followed by denaturation at 95°C for 5 minutes. The denatured samples were then separated by SDS-PAGE electrophoresis on a polyacrylamide gel. Proteins were transferred to a nitrocellulose membrane (0.45 µm NC membrane), blocked with blocking buffer at room temperature for 1 hour, and subjected to antibody incubation and development procedures according to the antibody manufacturer's instructions (Cell Signaling Technology).
(§4) Half-Maximal Degradation Concentration value (the drug concentration required for degrading proteins by 50%, abbreviated as DC50) reads method: comparing the grayscale values of Western blot bands from drug-treated samples with those from blank DMSO-treated controls, and identifying the drug concentration range at which the grayscale value is half that of the DMSO-treated control bands.
(§5) DC50 values can be calculated using ImageJ software to measure grayscale values of Western blot bands from drug-treated samples. The concentration-response curve is fitted to estimate the drug concentration corresponding to half the grayscale value.
(§6) Target protein remaining (%) refers to the percentage of target protein remaining in hPBMC cells after treatment with protein degrader compounds.
(§7) Calculation method for target protein remaining (%): Use ImageJ software to measure grayscale values of Western blot bands from drug (protein degrader)-treated samples. The grayscale value of drug-treated bands is divided by that of internal control protein bands, and the resulting quotient is normalized to obtain the relative percentage of remaining target protein after protein degrader treatment.
(§8) Target protein degradation rate (%) = 100% - target protein remaining (%).

RSK1 = biological target: T2, RSK1 (Homo sapiens, UniProt Q15418); experiment: Western blot degradation of RSK1 (hPBMC); assay type: cell-based; conditions: Table D8
T2 construct: evaluate the effects of the compounds of the present disclosure on the expression of target proteins in cells; endogenous in cells; host or cells: hPBMC
Description: as §1, §2, §3, §4, §5, §6, §7, §8

T1 sequence (P51812 whole entry): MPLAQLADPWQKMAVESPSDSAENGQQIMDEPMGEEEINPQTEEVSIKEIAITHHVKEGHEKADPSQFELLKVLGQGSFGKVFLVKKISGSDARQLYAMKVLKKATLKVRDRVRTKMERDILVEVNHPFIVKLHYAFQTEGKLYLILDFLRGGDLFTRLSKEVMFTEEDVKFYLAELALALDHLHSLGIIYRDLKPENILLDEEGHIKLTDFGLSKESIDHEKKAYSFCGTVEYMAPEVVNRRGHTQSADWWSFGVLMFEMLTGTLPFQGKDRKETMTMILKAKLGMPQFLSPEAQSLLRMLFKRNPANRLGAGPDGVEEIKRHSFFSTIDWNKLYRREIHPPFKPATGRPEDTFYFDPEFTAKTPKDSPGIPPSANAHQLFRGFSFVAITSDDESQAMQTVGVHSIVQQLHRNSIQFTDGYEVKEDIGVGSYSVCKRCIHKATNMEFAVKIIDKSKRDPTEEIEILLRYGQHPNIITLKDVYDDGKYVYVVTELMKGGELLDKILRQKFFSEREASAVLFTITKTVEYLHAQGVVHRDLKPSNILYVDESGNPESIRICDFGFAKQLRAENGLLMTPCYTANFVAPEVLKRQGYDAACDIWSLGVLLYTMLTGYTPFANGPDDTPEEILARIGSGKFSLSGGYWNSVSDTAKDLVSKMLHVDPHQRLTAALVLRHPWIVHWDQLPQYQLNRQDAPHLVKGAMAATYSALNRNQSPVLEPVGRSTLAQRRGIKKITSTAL
T2 sequence (Q15418 whole entry): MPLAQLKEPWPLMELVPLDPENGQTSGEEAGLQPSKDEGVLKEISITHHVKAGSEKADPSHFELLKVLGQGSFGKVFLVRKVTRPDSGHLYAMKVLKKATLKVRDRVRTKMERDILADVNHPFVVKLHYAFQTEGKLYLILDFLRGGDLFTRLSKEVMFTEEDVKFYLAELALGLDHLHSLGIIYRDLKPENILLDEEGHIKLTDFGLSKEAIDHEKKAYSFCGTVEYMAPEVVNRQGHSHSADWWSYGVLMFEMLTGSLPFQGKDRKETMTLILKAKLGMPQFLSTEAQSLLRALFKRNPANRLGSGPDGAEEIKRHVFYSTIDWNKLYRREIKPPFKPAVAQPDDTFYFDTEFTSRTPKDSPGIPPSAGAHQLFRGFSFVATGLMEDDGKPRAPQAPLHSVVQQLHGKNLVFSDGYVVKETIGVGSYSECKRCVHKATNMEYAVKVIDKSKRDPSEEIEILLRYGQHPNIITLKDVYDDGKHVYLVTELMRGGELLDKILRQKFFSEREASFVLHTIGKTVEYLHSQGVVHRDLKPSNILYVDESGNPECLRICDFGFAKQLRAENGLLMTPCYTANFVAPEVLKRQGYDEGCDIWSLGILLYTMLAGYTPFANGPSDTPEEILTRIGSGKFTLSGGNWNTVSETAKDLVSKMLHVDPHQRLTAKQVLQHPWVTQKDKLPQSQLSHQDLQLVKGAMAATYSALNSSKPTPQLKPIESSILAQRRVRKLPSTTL

Row | Compound | Degradation of substrate protein RSK2 (substrate protein remaining %) (RSK2) | Degradation of substrate protein RSK1 (substrate protein remaining %) (RSK1)
1 | C[C@@H]1CNC(=O)c2cc3ccc(C(=O)Nc4cnn(Cc5ccc(N6CCC(N7CCN(Cc8cnc(N9CCC(=O)NC9=O)cn8)CC7)CC6)cc5)c4)nc3n21 [GT-07963, (R)-N-(1-(4-(4-(4-((5-(2,4-dioxotetrahydropyrimidin-1(2H)-yl)pyrazin-2-yl)methyl)piperazin-1-yl)piperidin-1-yl)benzyl)-1H-pyrazol-4-yl)-9-methyl-6-oxo-6,7,8,9-tetrahydropyrido[3',2':4,5]pyrrolo[1,2-a]pyrazine-2-carboxamide] | A (A is defined as 0% ≤ substrate protein remaining % ≤ 80%) | A (A is defined as 0% ≤ substrate protein remaining % ≤ 80%)
2 | C[C@@H]1CNC(=O)c2cc3ccc(C(=O)Nc4cnn(Cc5ccc(N6CCN(Cc7cc(N8CCC(=O)NC8=O)ncc7F)CC6)cc5)c4)nc3n21 [GT-07797, (R)-N-(1-(4-(4-((2-(2,4-dioxotetrahydropyrimidin-1(2H)-yl)-5-fluoropyridin-4-yl)methyl)piperazin-1-yl)benzyl)-1H-pyrazol-4-yl)-9-methyl-6-oxo-6,7,8,9-tetrahydropyrido[3',2':4,5]py rrolo[1,2-a]pyrazine-2-carboxamide] | A (A is defined as 0% ≤ substrate protein remaining % ≤ 80%) | A (A is defined as 0% ≤ substrate protein remaining % ≤ 80%)
3 | C[C@@H]1CNC(=O)c2cc3ccc(C(=O)Nc4cnn(Cc5ccc(N6CCC(N(C)Cc7cc(N8CCC(=O)NC8=O)cnc7F)CC6)cc5)c4)nc3n21 [GT-07949, (R)-N-(1-(4-(4-(((5-(2,4-dioxotetrahydropyrimidin-1(2H)-yl)-2-fluoropyridin-3-yl)methyl)(methyl)amino)piperidin-1-yl)benzyl)-1H-pyrazol-4-yl)-9-methyl-6-oxo-6,7,8,9-tetrahydropyrido[3',2':4,5]py rrolo[1,2-a]pyrazine-2-carboxamide] | A (A is defined as 0% ≤ substrate protein remaining % ≤ 80%) | A (A is defined as 0% ≤ substrate protein remaining % ≤ 80%)
4 | C[C@@H]1CNC(=O)c2cc3ccc(C(=O)Nc4cnn(Cc5ccc(N6CCC(N7CCN(Cc8cncc(N9CCC(=O)NC9=O)c8)CC7)CC6)cc5)c4)nc3n21 [GT-07959, (R)-N-(1-(4-(4-(4-((5-(2,4-dioxotetrahydropyrimidin-1(2H)-yl)pyridin-3-yl)methyl)piperazin-1-yl)piperidin-1-yl)benzyl)-1H-pyrazol-4-yl)-9-methyl-6-oxo-6,7,8,9-tetrahydropyrido[3',2':4,5]pyrrolo[1,2-a]pyrazine-2-carboxamide] | A (A is defined as 0% ≤ substrate protein remaining % ≤ 80%) | A (A is defined as 0% ≤ substrate protein remaining % ≤ 80%)
5 | C[C@@H]1CNC(=O)c2cc3ccc(C(=O)Nc4cnn(Cc5ccc(N6CCC(N7CCN(Cc8ccc(N9CCC(=O)NC9=O)cc8)CC7)CC6)cc5)c4)nc3n21 [GT-07952, (R)-N-(1-(4-(4-(4-(4-(2,4-dioxotetrahydropyrimidin-1(2H)-yl)benzyl)piperazin-1-yl)piperidin-1-yl)benzyl)-1H-pyrazol-4-yl)-9-methyl-6-oxo-6,7,8,9-tetrahydropyrido[3',2':4,5]pyrrolo[1,2-a]pyrazine-2-carboxamide] | A (A is defined as 0% ≤ substrate protein remaining % ≤ 80%) | A (A is defined as 0% ≤ substrate protein remaining % ≤ 80%)
6 | C[C@@H]1CNC(=O)c2cc3ccc(C(=O)Nc4cnn(Cc5ccc(N6CCN(Cc7ccc(N8CCC(=O)NC8=O)cc7)CC6)cc5)c4)nc3n21 [GT-07927, (R)-N-(1-(4-(4-(4-(2,4-dioxotetrahydropyrimidin-1(2H)-yl)benzyl)piperazin-1-yl)benzyl)-1H-pyrazol-4-yl)-9-methyl-6-oxo-6,7,8,9-tetrahydropyrido[3',2':4,5]py rrolo[1,2-a]pyrazine-2-carboxamide] | A (A is defined as 0% ≤ substrate protein remaining % ≤ 80%) | A (A is defined as 0% ≤ substrate protein remaining % ≤ 80%)
7 | C[C@@H]1CNC(=O)c2cc3ccc(C(=O)Nc4cnn(Cc5ccc(N6CCC(N(C)Cc7cc(N8CCC(=O)NC8=O)ncc7F)CC6)cc5)c4)nc3n21 [GT-07943, (R)-N-(1-(4-(4-(((2-(2,4-dioxotetrahydropyrimidin-1(2H)-yl)-5-fluoropyridin-4-yl)methyl)(methyl)amino)piperidin-1-yl)benzyl)-1H-pyrazol-4-yl)-9-methyl-6-oxo-6,7,8,9-tetrahydropyrido[3',2':4,5]py rrolo[1,2-a]pyrazine-2-carboxamide] | A (A is defined as 0% ≤ substrate protein remaining % ≤ 80%) | A (A is defined as 0% ≤ substrate protein remaining % ≤ 80%)
8 | C[C@@H]1CNC(=O)c2cc3ccc(C(=O)Nc4cnn(Cc5ccc(N6CCC(N(C)Cc7cnc(N8CCC(=O)NC8=O)cn7)CC6)cc5)c4)nc3n21 [GT-07950, (R)-N-(1-(4-(4-(((5-(2,4-dioxotetrahydropyrimidin-1(2H)-yl)pyrazin-2-yl)methyl)(methyl)amino)piperidin-1-yl)benzyl)-1H-pyrazol-4-yl)-9-methyl-6-oxo-6,7,8,9-tetrahydropyrido[3',2':4,5]py rrolo[1,2-a]pyrazine-2-carboxamide] | A (A is defined as 0% ≤ substrate protein remaining % ≤ 80%) | A (A is defined as 0% ≤ substrate protein remaining % ≤ 80%)
9 | C[C@@H]1CNC(=O)c2cc3ccc(C(=O)Nc4cnn(Cc5ccc(N6CCC(N(C)Cc7ccc(C8CCC(=O)NC8=O)cc7)CC6)cc5)c4)nc3n21 (stereo partly drawn) [GT-07937, (9R)-N-(1-(4-(4-((4-(2,6-dioxopiperidin-3-yl)benzyl)(methyl)amino)piperidin-1-yl)benzyl)-1H-pyrazol-4-yl)-9-methyl-6-oxo-6,7,8,9-tetrahydropyrido[3',2':4,5]py rrolo[1,2-a]pyrazine-2-carboxamide] | B (B is defined as substrate protein remaining % > 80%) | A (A is defined as 0% ≤ substrate protein remaining % ≤ 80%)
10 | C[C@@H]1CNC(=O)c2cc3ccc(C(=O)Nc4cnn(Cc5ccc(N6CCC(N(C)Cc7ccc(N8CCC(=O)NC8=O)cc7)CC6)cc5)c4)nc3n21 [GT-07938, (R)-N-(1-(4-(4-((4-(2,4-dioxotetrahydropyrimidin-1(2H)-yl)benzyl)(methyl)amino)piperidin-1-yl)benzyl)-1H-pyrazol-4-yl)-9-methyl-6-oxo-6,7,8,9-tetrahydropyrido[3',2':4,5]py rrolo[1,2-a]pyrazine-2-carboxamide] | B (B is defined as substrate protein remaining % > 80%) | A (A is defined as 0% ≤ substrate protein remaining % ≤ 80%)
11 | C[C@@H]1CNC(=O)c2cc3ccc(C(=O)Nc4cnn(Cc5ccc(N6CCC(N7CCN(Cc8ccc(C9CCC(=O)NC9=O)cc8)CC7)CC6)cc5)c4)nc3n21 (stereo partly drawn) [GT-07951, (9R)-N-(1-(4-(4-(4-(4-(2,6-dioxopiperidin-3-yl)benzyl)piperazin-1-yl)piperidin-1-yl)benzyl)-1H-pyrazol-4-yl)-9-methyl-6-oxo-6,7,8,9-tetrahydropyrido[3',2':4,5]py rrolo[1,2-a]pyrazine-2-carboxamide] | A (A is defined as 0% ≤ substrate protein remaining % ≤ 80%) | A (A is defined as 0% ≤ substrate protein remaining % ≤ 80%)
12 | C[C@@H]1CNC(=O)c2cc3ccc(C(=O)Nc4cnn(Cc5ccc(N6CCC(N7CCN(Cc8cc(N9CCC(=O)NC9=O)ncc8F)CC7)CC6)cc5)c4)nc3n21 [GT-07957, (R)-N-(1-(4-(4-(4-((2-(2,4-dioxotetrahydropyrimidin-1(2H)-yl)-5-fluoropyridin-4-yl)methyl)piperazin-1-yl)piperidin-1-yl)benzyl)-1H-pyrazol-4-yl)-9-methyl-6-oxo-6,7,8,9-tetrahydropyrido[3',2':4,5]pyrrolo[1,2-a]pyrazine-2-carboxamide] | A (A is defined as 0% ≤ substrate protein remaining % ≤ 80%) | A (A is defined as 0% ≤ substrate protein remaining % ≤ 80%)
13 | C[C@@H]1CNC(=O)c2cc3ccc(C(=O)Nc4cnn(Cc5ccc(N6CCN(Cc7ccc(N8CCC(=O)NC8=O)cn7)CC6)cc5)c4)nc3n21 [GT-07929, (R)-N-(1-(4-(4-((5-(2,4-dioxotetrahydropyrimidin-1(2H)-yl)pyridin-2-yl)methyl)piperazin-1-yl)benzyl)-1H-pyrazol-4-yl)-9-methyl-6-oxo-6,7,8,9-tetrahydropyrido[3',2':4,5]py rrolo[1,2-a]pyrazine-2-carboxamide] | B (B is defined as substrate protein remaining % > 80%) | A (A is defined as 0% ≤ substrate protein remaining % ≤ 80%)
